# Results from PMC3493702 (Cornea, 2013).
# Legend:
# in vitro = conditions: rabbit, Ptot (apparent permeability coefficient) [corneal permeability]
# [1] = corneal permeability, literature value; cited from earlier work
SMILES,"Papp at 120 min, 100 mM (in vitro) [nm/s]",Ptot [1] [nm/s]
"CC(CO)(CO)[N+](=O)[O-] [MNPD, 2-methyl-2-nitro-1,3-propanediol]",43.7,
OC[C@@H](O)[C@@H](O)[C@H](O)[C@H](O)CO [mannitol],,24
